pKd: −log10 of the molar value. Where a SMILES comes first, the peptide text is derived from it. Where no end group is shown, it is not given here. [ ]: non-standard residue; d: D form. The star is where a group is joined. DOTA = O=C(O)CN1CCN(CC(=O)O)CCN(CC(=O)*)CCN(CC(=O)O)CC1; βAla = NCCC(=O)O
Legend:
[1] = In vitro metabolic stability in human plasma; format: in vitro ADME; details: 37 °C, radio-HPLC
Method: High proteolytic stability is an important aspect of the tumor-targeting peptides to deliver the highest possible tumor-targeting effect. The extent of proteolytic degradation of the ^177Lu-AngII peptide was determined by incubating the radiolabeled peptide with human plasma at 37° C for up to 5 h. […] A limited release of free ^177Lu amount (up to 10%) indicates the high in vitro plasma stability of the radiolabeled peptide, with low enzymatic breakdown by plasma proteases (Figure 2).
Human plasma was obtained from the institutional blood bank from volunteers’ blood donors (with consent). The metabolic stability of ^177Lu-DOTA-AngII peptide was determined following a method essentially as described previously. In summary, the radiolabeled peptide (50 μL) was mixed with plasma (400 μL) and incubated in duplicate at 37 °C for up to 5 h. After incubation, the plasma proteins were precipitated using a mixture of CH3CN/EtOH (1:1 v/v, 400 μL). The supernatant layer was collected by centrifugation (5000 rpm for 5 min), filtered through a 0.2-µm Millex GP filter, and analyzed by radio-HPLC to assess the product stability.

[2] = tested on: Balb/c mice; test: In vivo biodistribution in normal Balb/c mice; set-up: species or system mouse; details: Balb/c mice
Method: The in vivo biodistribution of ^68Ga-labeled AngII peptide analog was carried out in female Balb/c mice, at various time points, to observe the uptake in the normal tissues and organs and find the excretion route of the radiolabeled peptides. […] Low uptake and retention of the radiopeptide in the liver varying from 1.54 ± 0.28% ID/g at 45 min to 0.48 ± 0.17% ID/g at 2 h p.i. is probably related to the high hydrophilicity (log p = −0.55 ± 0.11) of the ^68Ga-labeled AngII peptide analog. […] The efficient clearance from the kidneys is possibly associated with the urinary excretion of the radiopeptide. […] The low amount of uptake in the bone (up to 0.37 ± 0.14% ID/g) (Table 2) indicates the minimal breakdown of the ^68Ga-labeled AngII peptide complex in vivo combined with the minor release of free ^68Ga. These findings are in agreement with the high in vitro metabolic stability observed in the human plasma for the radiolabeled AngII peptide. The accumulation in the extremely vascular organ lungs was also low (up to 1.11 ± 0.37% ID/g) signifying a low trapping by the lungs.
Approval from the Institutional Animal Care and Use Committee was obtained for the animal protocol used. Additionally, strict international regulations govern the safe and proper use of laboratory animals employed during animal experiments. In vivo, biodistribution was performed on healthy female mice according to the methods essentially described previously. In summary, Balb/c mice (n = 5 per time point, body mass 20–25 g) at 45 min and 2 h were administered with the HPLC-purified AngII peptide (~1 µg, 100 µL, 0.925–1.85 MBq; 25–50 µCi) via lateral tail vein injection. At the specified time points, the animals were sacrificed by cervical dislocation. A fraction of the blood was collected from cardiac puncture. Urine was also collected and measured with the bladder contents. Major organs, such as the lungs, pancreas, stomach, liver, heart, kidneys, and intestines were isolated, weighed, and measured for radioactivity. The uptake values of the radiolabeled peptide in different organs are expressed as the percent injected dose per gram (% ID/g) of tissue/organ. The radioactivity in the urine with bladder contents is shown as the percent of the injected dose per organ (% ID/organ). To calculate the injected dose, a standard (20-fold dilution of injected dose) was prepared and counted together with animal tissue samples.

[3] = tested on: human breast cancer cells; details: cited from earlier work
Method: The values were 27.73 ± 5.97 nM for MDA-MB-231 and 35.14 ± 7.09 nM for the MCF7 breast cancer cell line. Thes ...

| remaining at 5 h ([1]; human plasma 400 μL + 50 μL radiopeptide, duplicate, CH3CN/EtOH precipitation, read-out: Radioactivity still associated with the radiolabeled peptide) | Release of free ^177Lu ([1]; human plasma, 5 h) | Compound | Biological and excretion pattern compared with the ^68Ga-labeled counterpart [2] | pKd [3] |
| --- | --- | --- | --- | --- |
| > 90% | up to 10% | CC[C@H](C)[C@H](NC(=O)[C@H](Cc1ccc(O)cc1)NC(=O)[C@@H](NC(=O)[C@H](CCCNC(=N)N)NC(=O)[C@H](CC(=O)O)NC(=O)CCNC(=O)[C@H](CCCCN)NC(=O)CN1CCN(CC(=O)O)CCN(CC(=O)O)CCN(CC(=O)O)CC1)C(C)C)C(=O)N[C@@H](Cc1c[nH]cn1)C(=O)N1CCC[C@H]1C(=O)N[C@@H](Cc1ccccc1)C(=O)N[C@@H](Cc1c[nH]c2ccccc12)C(=O)N[C@@H](CCCCN)C(=O)N[C@@H](Cc1ccc(O)cc1)C(N)=O [^177Lu-DOTA-AngII peptide, metal not drawn] ({DOTA}-K[βAla]DRVYIHPFWKY-NH2) | more or less the same biological and excretion pattern |  |
|  |  | ^125I-angiotensin II: radioiodinated angiotensin II from the literature, ref 13 (DRVYIHPF; also: radioiodinated (125I label), site not given here; UniProt P01019 25-32, looked up) |  | ~7.22 |
